“Also recorded” adds a separate entry of the source.
What was measured:
[1] = test system: supporting cells in organ of Corti explants; assay: Cochlear explant culture with Pa2g4/EBP1 inhibitors: EdU supporting cell proliferation; assay type: cell-based; conditions: P1-P2 wild type mouse explants, 48-72 hours, WS3 0.01 μM or WS6 0.5 μM vs DMSO, gradient from apex to base
Experimental: (§1) Cochleae were isolated from postnatal day 1-day 2 wild type or Atoh1-nGFP mice (Lumpkin, Collisson et al. 2003). The organ of Corti was isolated from the otic capsule, and the nerve tissue and stria vascularis were removed. The organ of Corti was plated on a glass coverslip coated with a 1:10 mixture of Matrigel and DMEM/F12 to promote attachment. Cochlear explants were cultured in a serum-free 1:1 mixture of DMEM and F12, supplemented with Glutamax, N2, and B27. For the treated cochlea, small molecules were added to this culture medium, while the control cochlea was cultured with medium containing DMSO at the same concentration used in the treatments. To measure proliferation, explants were treated with EdU (10 μg/ml) along with the drug or DMSO. Drug-treated explants were cultured for 3 days then fixed in 4% PFA for 30 min.
To quantify WS3 and WS6-treated cochleae, the length of the sensory epithelium was measured using ImageJ software with the overall length determined from the hook to the apex in each sample. The number of myosin VIIa-positive cells or Edu positive cells in the supporting cell region were manually counted. The total number of cells was counted in each of four cochlear segments of 1200-1400 μm (apical, mid-apical, mid-basal, and basal), density (cells per 100 μm) was then calculated for each segment. […]

[2] = test system: p-ERBB2 in MCF-7 cells; assay: Western blot of ERBB2 pathway activation with anti-p-ERBB2 antibody (Y1248); assay type: cell-based; conditions: MCF-7 breast cancer cells, treated for 15 minutes
Experimental: FIGS. 8A, 8A′. […] FIG. 8A. Images of the apex region of the P1-P2 organ of Corti cultured for 48-72 hours in the presence of DMSO, WS3 (0.01 μM), or WS6 (0.5 μM). MYO7a (green), SOX2 (red) and EdU (blue) are shown. IHC, inner hair cells; OHC, outer hair cells (FIG. 8A′) Cross section of organ of Corti from FIG. 8A at the yellow line. Scale bar: 25 microns. FIG. 8B. […] FIG. 8C. Western blot analysis of ERBB2 pathway activation was conducted using anti-p-ERBB2 antibody (Y1248) in MCF-7 cells. Cells were treated with WS3 or WS6 for 15 minutes.
To determine if the drug treatments promoted SC proliferation, the compound were applied to cochlear explants from wild type mice at P1-P2 with EdU present to label the proliferating cells. […] To confirm that the effect of the drugs was mediated through ERBB2 activation, the ERBB2 phosphorylation was analyzed using the protein lysates from cochlear explant.

[3] = test system: retinal pigment epithelium (RPE) cells; conditions: Swoboda, Elliott et al. 2013; cited from earlier work
[4] = test system: organ of Corti explants (hair cells / supporting cells); assay: Cochlear explant culture with Pa2g4/EBP1 inhibitors: MYO7+ / Atoh1-nGFP cell generation; assay type: cell-based, mouse; conditions: for Increase in number of MYO7+ cells in the apex / Atoh1-nGFP-positive cells near OHCs: Atoh1-nGFP mouse cochlear explants; for Increase in number of MYO7+ cells in the apex: WS3 or WS6 treatment; for Atoh1-nGFP-positive cells near OHCs: gradient from apex to base; for MYO7+ cell counts at the apex region versus controls: P1-P2 mouse organ of Corti explants, 48-72 hours, WS3 0.01 μM or WS6 0.5 μM vs DMSO, mean per 100 μm, WS6 p=0.0043, WS3 p=0.0060; for Concentration at which effects were observed in culture: application in culture
Experimental: as §1
To quantify WS3 and WS6-treated cochleae, the length of the sensory epithelium was measured using ImageJ software with the overall length determined from the hook to the apex in each sample. The number of myosin VIIa-positive cells or Edu positive cells in the supporting cell region were manually counted. The total number of cells was counted in each of four cochlear segments of 1200-1400 μm (apical, mid-apical, mid-basal, and basal), density (cells per 100 μm) was then calculated for each segment. Statistical analyses were performed using Prism version 7.0 software; comparisons among groups were made by one-way ANOVA followed by Dunnett's multiple-comparisons test for comparing the mean of each group with the mean of a control group.
Our findings with the conditional ErbB2 activation animal models have shown that the constitutive activation of ERBB2 can result in SC expansion and ectopic MYO7+ cell generation. To further validate the crucial role of ERBB2 activation, inventors turned to small molecules to pharmacologically activate the ErbB pathway and determine their effect on SC expansion and HC differentiation. Two compounds, WS3 and WS6, were chosen, as these two analogues promoted cell proliferation in growth arrested cells such as […] and retinal pigment epithelial (RPE) cells (Shen, Tremblay et al. 2013, Swoboda, Elliott et al. 2013). […] To test the effect of these drugs on SCs, they were applied to cochlear explants derived from Atoh1-nGFP reporter mice (Lumpkin, Collisson et al. 2003). […] The number of MYO7+ cells in the apex was increased by 20 cells/100 μm (FIGS. 7A and 7B).

[5] = test system: rodent diabetes model; conditions: by promoting cell proliferation, Shen, Tremblay et al. 2013; cited from earlier work

Structure (SMILES) | EdU+ cells in the SOX2+ supporting cell region [1] | p-ERBB2 level [2] | Expansion of retinal pigment epithelium (RPE) cells [3] | Increase in number of MYO7+ cells in the apex [4] [cells/100 μm] | Atoh1-nGFP-positive cells near OHCs [4] | MYO7+ cell counts at the apex region versus controls [4] | Concentration at which effects were observed in culture [4] [nM] | β-cell mass [5]
CN1CCN(Cc2ccc(NC(=O)Nc3ccc(Oc4cc(NC(=O)C5CC5)ncn4)cc3)cc2C(F)(F)F)CC1 [WS3] | A large number of EdU+ cells were observed; also recorded: significantly more SCs | elevated | expands retinal pigment epithelium (RPE) cells | 20 | additional Atoh1-nGFP-positive cells near OHCs were seen | Significantly more MYO7+ cells | 10 | 
CN1CCN(Cc2ccc(NC(=O)Cc3ccc(Oc4cc(NC(=O)C5CC5)ncn4)cc3)cc2C(F)(F)F)CC1 [WS6] | A large number of EdU+ cells were observed; also recorded: significantly more SCs | elevated |  | 20 | additional Atoh1-nGFP-positive cells near OHCs were seen | Significantly more MYO7+ cells | 500 | increases p3-cell mass

Source: patent publication US20200093824A1, “ERBB3 Activators in Hearing Restoration” (University of Rochester, priority 2018, published 2020)
